Literature values as cited in US20130184354A1, “Silicone and Hylauronic Acid (HLA) Delivery Systems for Products by Sustainable Processes for Medical Uses Including Wound Management” (priority 2012, published 2013).

Assays:
CB2 receptors = CB2 receptors (Homo sapiens, UniProt P34972)
[1] = compared with THC

Sequence of CB2 receptors (P34972 whole entry): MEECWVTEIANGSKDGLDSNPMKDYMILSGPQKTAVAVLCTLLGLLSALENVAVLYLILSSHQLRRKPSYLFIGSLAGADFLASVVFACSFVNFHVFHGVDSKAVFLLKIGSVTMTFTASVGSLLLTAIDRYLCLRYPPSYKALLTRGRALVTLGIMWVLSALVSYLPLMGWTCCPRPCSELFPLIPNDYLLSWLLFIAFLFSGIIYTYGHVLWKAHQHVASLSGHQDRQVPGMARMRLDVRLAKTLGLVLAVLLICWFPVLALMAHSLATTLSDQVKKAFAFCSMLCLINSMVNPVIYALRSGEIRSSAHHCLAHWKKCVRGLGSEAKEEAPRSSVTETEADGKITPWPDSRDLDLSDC

Row | Structure (SMILES) | affinity for CB2 receptors (CB2 receptors) | potency relative to THC [1]
1 | C=C(C)[C@@H]1CCC(C)=C[C@H]1c1c(O)cc(CCCCC)cc1O [Cannabidiol] | no affinity | –
2 | CCCCCCC(C)(C)c1cc(O)c2c(c1)OC(C)(C)[C@@H]1CC=C(CO)C[C@@H]21 [HU-210] | – | about 100 times
